According to patent US20030175906A1, “Nuclease resistant chimeric oligonucleotides” (priority 2001, published 2003):

What was measured:
Target RNA = test: Tm values of L-thymidine modified oligonucleotides against RNA; format: binding
[1] = In vivo nuclease stability of L/D-oligonucleotide chimera, full-length oligonucleotide in organs by CGE; design: species or system BalbC mouse; conditions: IV bolus, after 24 h
Procedure: Here we report the in vivo nuclease stability of L/D-oligonucleotide chimera in mouse. We synthesized the phosphoramidite and CPG derived from L-thymidine, which was synthesized from a novel route [Jung, E. M.; Xu, Y. Tetrahedron Lett. 1997, 24, 4199-4202]. A 20 mer phosphorothioate oligonucleotide ISIS-120745 (antisense to mouse ICAM-1) was capped with L-2′-deoxy thymidine at 3′ and 5′-positions. The oligonucleotide was then administered IV bolus into BalbC mouse. After 24 h. mouse was sacrificed and the oligonucleotide was isolated from different organs. Percentage of full-length oligonucleotide present in different organs were analyzed by CGE.

| Substance | ΔTm (Target RNA) [°C] | intact full-length oligonucleotide isolated from all the major organs [1] [%] | Tm, Target RNA (Target RNA) [°C] |
| --- | --- | --- | --- |
| ISIS 120745: 5′ T*GC ATC CCC CAG GCC ACC AT* 3′, T* = L-Thymidine, all P=S; antisense to mouse ICAM-1 (antisense TGCATCCCCCAGGCCACCAT; chemistry not fully specified) | −1.76 | > 90 |  |
| ISIS 121785: 5′ T*C^oC^oGCGCTGTGATGCA^oT^oT* 3′ (SEQ ID NO:2), L-thymidine caps, 2′-O-MOE, all P=S (DNA NNNCGCTGTGATGCNNN; L-thymidine caps, 2'-O-MOE, phosphorothioate, chemistry not fully specified) | 2.7 |  | 63.3 |
